IC50 data for 24 molecules are collected here from patent US12534452B2, “N-(1H-imidazol-2-yl)benzamide compound and pharmaceutical composition comprising the same as active ingredient” (KAINOS MEDICINE, INC., priority 2019, dated 2026).

The target in the assay is IRAK4 (Homo sapiens (Human), UniProt Q9NWZ3). The experiment in a line: In vitro IRAK4 phosphorylation activity assay. The format is biochemical. The conditions noted are these: [γ-33P]-ATP, myelin basic protein substrate, 40 minutes at room temperature; categories. Here is the method:
In vitro IRAK4 analysis was performed using N-(1H-imidazol-2-yl)benzamide compounds according to the present invention. All compounds were prepared by dissolving in DMSO. N-(1H-imidazol-2-yl)benzamide compound according to the present invention and other elements for the reaction were added to an assay well. In the standard Kinase Profiler service the preincubation step between the N-(1H-imidazol-2-yl)benzamide compound and kinase was not performed before the reaction.
To the positive control well, all reactants except for the N-(1H-imidazol-2-yl)benzamide compound according to the present invention were added, and DMSO was added to remove the solvent effect. A known control inhibitor having the following structure was added to the blank wells to inhibit kinase activity and establish a base-line.
IRAK4 was incubated with 8 mM MOPS pH 7.0, 0.2 mM EDTA, 0.33 mg/mL myelin basic protein, 10 mM magnesium acetate and [γ-33P]-ATP (specific activity approx. 500 cpm/pmol, concentration as required). The reaction was initiated by the addition of the MgATP mix. After incubation for 40 minutes at room temperature, the reaction was stopped by the addition of 3% phosphoric acid solution. 10 μL of the reaction was then spotted onto a P30 filtermat and washed three times for 5 minutes in 75 mM phosphoric acid and once in methanol prior to drying and scintillation counting.
The results are shown in Table 26 below, where the phosphorylation activity of IC50 values for IRAK4 is shown in categories (A: <50 nM, B: 50-100 nM, C: >100 nM).

Structures are written as SMILES.

Sequence of IRAK4 (Q9NWZ3 whole entry): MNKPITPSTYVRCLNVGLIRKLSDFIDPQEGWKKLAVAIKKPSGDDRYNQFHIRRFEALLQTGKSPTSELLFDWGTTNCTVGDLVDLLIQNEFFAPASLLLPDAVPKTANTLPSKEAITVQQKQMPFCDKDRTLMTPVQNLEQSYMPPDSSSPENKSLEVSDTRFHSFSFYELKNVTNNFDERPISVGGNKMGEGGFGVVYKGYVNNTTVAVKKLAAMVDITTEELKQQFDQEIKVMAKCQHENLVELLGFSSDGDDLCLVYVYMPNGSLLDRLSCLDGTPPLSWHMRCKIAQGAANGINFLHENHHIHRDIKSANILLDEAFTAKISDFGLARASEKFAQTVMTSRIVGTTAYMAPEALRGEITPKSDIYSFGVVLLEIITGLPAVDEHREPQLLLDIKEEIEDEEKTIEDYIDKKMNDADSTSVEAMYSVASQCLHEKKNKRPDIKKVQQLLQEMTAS

Take `COC(=O)CCc1cn(-c2ccccc2)c(NC(=O)c2cccc(-c3cn[nH]c3)c2)n1` [Example 18, methyl 3-(2-(3-(1H-pyrazol-4-yl)benzamido)-1-phenyl-1H-imidazol-4-yl)propanoate]: the IC50 was < 0.05 µM. The value for `Cn1cc(-c2cccc(C(=O)Nc3nc(CCCC(=O)NC[C@@H](F)C(C)(C)O)cn3-c3ccccc3)c2)cn1` [Example 185, (R)—N-(4-(4-((2-fluoro-3-hydroxy-3-methylbutyl)amino)-4-oxobutyl)-1-phenyl-1H-imidazol-2-yl)-3-(1-methyl-1H-pyrazol-4-yl)benzamide] was 0.05 to 0.1 µM. For `Cn1cc(-c2cccc(C(=O)Nc3nc(CCCC(=O)N4CCOCC4)cn3-c3ccccc3)c2)cn1` [Example 160, 3-(1-methyl-1H-pyrazol-4-yl)-N-(4-(4-morpholino-4-oxobutyl)-1-phenyl-H-imidazol-2-yl)benzamide], the IC50 was < 0.05 µM. The result for `Cn1cc(-c2cccc(C(=O)Nc3nc(CCC(=O)Nc4ccccc4)cn3-c3ccccc3)c2)cn1` [Example 193, 3-(1-methyl-1H-pyrazol-4-yl)-N-(4-(3-oxo-3-(phenylamino)propyl)-1-phenyl-1H-imidazol-2-yl)benzamide] reads 0.05 to 0.1 µM; that for `O=C(CCCc1cn(-c2ccccc2)c(NC(=O)c2cccc(-c3cccc4[nH]ncc34)c2)n1)NC1CC1` [Example 249, N-(4-(4-(cyclopropylamino)-4-oxobutyl)-1-phenyl-1H-imidazol-2-yl)-3-(1H-indazol-4-yl)benzamide], < 0.05 µM; that for `COC[C@@H]1CCCN1NC(=O)CCCc1cn(-c2ccccc2)c(NC(=O)c2cccc(-c3cn[nH]c3)c2)n1` [Example 53, (S)—N-(4-(4-((2-(methoxymethyl)pyrrolidin-1-yl)amino)-4-oxobutyl)-1-phenyl-1H-imidazol-2-yl)-3-(1H-pyrazol-4-yl)benzamide], < 0.05 µM.

Take `CNC(=O)Cc1cn(-c2ccccc2)c(NC(=O)c2ccccc2)n1` [Example 50, N-(4-(2-(methylamino)-2-oxoethyl)-1-phenyl-1H-imidazol-2-yl)benzamide]: the IC50 was > 0.1 µM. With `O=C(Nc1nc(CCCO)cn1-c1ccccc1)c1cccc(-c2cn[nH]c2)c1` [Example 105, N-(4-(3-hydroxypropyl)-1-phenyl-1H-imidazol-2-yl)-3-(1H-pyrazol-4-yl)benzamide], the IC50 was < 0.05 µM.

As for `Nc1ccc(-c2cccc(C(=O)Nc3nc(CCCC(=O)N4CCCCC4)cn3-c3ccccc3)c2)cn1` [Example 273, 3-(6-aminopyridin-3-yl)-N-(4-(4-oxo-4-(piperidin-1-yl)butyl)-1-phenyl-1H-imidazol-2-yl)benzamide], the IC50 was < 0.05 µM. The value for `CN(C)CCNC(=O)CCCc1cn(-c2ccccc2)c(NC(=O)c2cccc(-c3cnn(C)c3)c2)n1` [Example 162, N-(4-(4-((2-(dimethylamino)ethyl)amino)-4-oxobutyl)-1-phenyl-1H-imidazol-2-yl)-3-(1-methyl-1H-pyrazol-4-yl)benzamide] was 0.05 to 0.1 µM; that for `C[C@@H]1CC[C@@H](C)N1C(=O)CCc1cn(-c2ccccc2)c(NC(=O)c2cccc(-c3cn[nH]c3)c2)n1` [Example 29, N-(4-(3-((2R,5R)-2,5-dimethylpyrrolidin-1-yl)-3-oxopropyl)-1-phenyl-1H-imidazol-2-yl)-3-(1H-pyrazol-4-yl)benzamide] was < 0.05 µM.

`CNC(=O)Cc1cn(-c2ccccc2)c(NC(=O)c2cccc(-c3ccc4[nH]ncc4c3)c2)n1` [Example 243, 3-(1H-indazol-5-yl)-N-(4-(2-(methylamino)-2-oxoethyl)-1-phenyl-1H-imidazol-2-yl)benzamide]: the IC50 lay in the range of 0.05 to 0.1 µM. The value for `Cn1cc(-c2cccc(C(=O)Nc3nc(CCCC(=O)N4CCCC[C@@H]4CCO)cn3-c3ccccc3)c2)cn1` [Example 174, (R)—N-(4-(4-(2-(2-hydroxyethyl)piperidin-1-yl)-4-oxobutyl)-1-phenyl-1H-imidazol-2-yl)-3-(1-methyl-1H-pyrazol-4-yl)benzamide] was < 0.05 µM; that for `Cn1cc(-c2cccc(C(=O)Nc3nc(CCCCCC(=O)NC4CC4)cn3-c3ccccc3)c2)cn1` [Example 199, N-(4-(6-(cyclopropylamino)-6-oxohexyl)-1-phenyl-1H-imidazol-2-yl)-3-(1-methyl-1H-pyrazol-4-yl)benzamide] was < 0.05 µM. Consider `Cn1cc(-c2cccc(C(=O)Nc3nc(CCCC(=O)NCCO)cn3-c3ccccc3)c2)cn1` [Example 164, N-(4-(4-((2-hydroxyethyl)amino)-4-oxobutyl)-1-phenyl-1H-imidazol-2-yl)-3-(1-methyl-1H-pyrazol-4-yl)benzamide], for which the IC50 was < 0.05 µM. `O=C(Nc1nc(CCCCCCNc2ccccc2)cn1-c1ccccc1)c1cccc(-c2cn[nH]c2)c1` [Example 122, N-(1-phenyl-4-(6-(phenylamino)hexyl)-1H-imidazol-2-yl)-3-(1H-pyrazol-4-yl)benzamide] gave an IC50 of 0.05 to 0.1 µM. The result for `O=C(CCc1cn(-c2ccccc2)c(NC(=O)c2cccc(-c3cn[nH]c3)c2)n1)Nc1cnccn1` [Example 22, N-(4-(3-oxo-3-(pyrazin-2-ylamino)propyl)-1-phenyl-1H-imidazol-2-yl)-3-(1H-pyrazol-4-yl)benzamide] reads > 0.1 µM; that for `O=C(Nc1nc(CCCCCCN2CCCCC2)cn1-c1ccccc1)c1cccc(-c2cccc3[nH]ncc23)c1` [Example 255, 3-(1H-indazol-4-yl)-N-(1-phenyl-4-(6-(piperidin-1-yl)hexyl)-1H-imidazol-2-yl)benzamide], < 0.05 µM. In the case of `O=C(CCc1cn(-c2ccccc2)c(NC(=O)c2cccc(-c3cn[nH]c3)c2)n1)Nc1ccccn1` [Example 15, N-(4-(3-oxo-3-(pyridin-2-ylamino)propyl)-1-phenyl-1H-imidazol-2-yl)-3-(1H-pyrazol-4-yl)benzamide], the IC50 was > 0.1 µM. The result for `COC[C@@H]1CCCN1C(=O)CCCCc1cn(-c2ccccc2)c(NC(=O)c2cccc(-c3cn[nH]c3)c2)n1` [Example 86, (S)—N-(4-(5-(2-(methoxymethyl)pyrrolidin-1-yl)-5-oxopentyl)-1-phenyl-1H-imidazol-2-yl)-3-(1H-pyrazol-4-yl)benzamide] reads < 0.05 µM. As for `Cn1cc(-c2cccc(C(=O)Nc3nc(CCCC(=O)NC4CC4)cn3-c3ccccc3)c2)cn1` [Example 141, N-(4-(4-(cyclopropylamino)-4-oxobutyl)-1-phenyl-1H-imidazol-2-yl)-3-(1-methyl-1H-pyrazol-4-yl)benzamide], the half-inhibitory concentration (IC50) is < 0.05 µM. The value for `O=C(CCc1cn(-c2ccccc2)c(NC(=O)c2cccc(-c3cn[nH]c3)c2)n1)NN1CCCC1` [Example 27, N-(4-(3-oxo-3-(pyrrolidin-1-ylamino)propyl)-1-phenyl-1H-imidazol-2-yl)-3-(1H-pyrazol-4-yl)benzamide] was > 0.1 µM. For the molecule `Cn1cc(-c2cccc(C(=O)Nc3nc(CCCC(=O)NCCCO)cn3-c3ccccc3)c2)cn1` [Example 165, N-(4-(4-((3-hydroxypropyl)amino)-4-oxobutyl)-1-phenyl-1H-imidazol-2-yl)-3-(1-methyl-1H-pyrazol-4-yl)benzamide], the IC50 is < 0.05 µM. On to `CN1CCN(CCCc2cn(-c3ccccc3)c(NC(=O)c3cccc(-c4cn[nH]c4)c3)n2)CC1` [Example 108, N-(4-(3-(4-methylpiperazin-1-yl)propyl)-1-phenyl-1H-imidazol-2-yl)-3-(1H-pyrazol-4-yl)benzamide], for which the IC50 is < 0.05 µM.

As a reminder, the IC50 is the midpoint of a concentration-inhibition curve. A high value points to weaker potency in that assay.
